Assay results reported in article PMC8621770, “New Compounds with Bioisosteric Replacement of Classic Choline Kinase Inhibitors Show Potent Antiplasmodial Activity” (Pharmaceutics, 2021).
Counter-ions that a name gives are not always drawn. Like-named read-outs stand apart in the source and are kept apart here.

Columns and labels:
P. falciparum strain 3D7 = experiment: Antimalarial activity, P. falciparum lactate dehydrogenase growth inhibition assay; format: cell-based, Plasmodium falciparum; conditions: for fold decrease in antimalarial activity with respect to the reference compounds BR-23 / BR-25: Fg-9, Fa-21, Fg-14 vs BR-23, Ff-1, Ff-7, Ff-3 vs BR-25; for IC50: P. falciparum 3D7 in human erythrocytes, 72 h, LDH readout, read-out: IC50 a (In vitro IC50 values against P. falciparum); for fold decrease of antimalarial activity with respect to RSM932A: relative to RSM932A; for fold decrease in parasite lethality with respect to BR-31: relative to homologous BR-31
Description: Parasites of the P. falciparum strain 3D7 were grown in fresh group 0 positive human erythrocytes, obtained from the Centro Regional de Transfusion Sanguínea-SAS (Granada, Spain) and suspended at 5% haematocrit in RPMI 1640 containing 2% human serum, 0.2% NaHCO3, 0.5% Albumax II, 150 μM hypoxanthine, and […] gentamicin. Flasks were incubated at 37 °C, under 5% CO2 and 95% air mixture. […] The stock culture was then diluted with complete medium and non-parasitized erythrocytes to yield a haematocrit of 2% and parasitemia of 0.25%. Stock solutions of the test drugs were prepared at an initial concentration of 200 mM in DMSO, serially diluted and dispensed into triplicate in 96-well plates to yield final concentrations ranging from 0.0039 to 2 μM. The final well volume was 200 μL with a final concentration of DMSO 0.001%. Each plate also included positive growth controls, where only medium were added, and negative growth controls with 100 nM of chloroquine. […] A multidrop dispenser was used to add 50 μL of synchronized parasite culture per well. After 72 h of growth in presence of test compounds, the plates were stored frozen at −20 °C for at least 24 h. Next, they were thawed at room temperature. Parasite growth inhibition assays and IC50 determinations were carried out following the P. falciparum lactate dehydrogenase assay where parasite viability is quantified by measuring LDH activity upon APAD+ addition, a cofactor that is specific to the Plasmodium enzyme. To evaluate LDH activity, 140 μL of freshly made reaction mix, containing 143 mM sodium L-lactate, 143 μM APAD, 178.75 μM NBT, 1 U/mL diaphorase, 0.7% Tween 20 and 100 mM Tris-HCl (pH 8.0) were dispensed into plates. After 10 min of incubation in the dark at room temperature, absorbance was measured at 630 nm with a vmax precision multiwell plate reader from Molecular Devices, by using the accompanying SOFT maxPro software for analysis.

PfCK = target: T1, PfCK (Plasmodium falciparum, UniProt Q8IM71); experiment: Spectrophotometric coupled enzymatic assay for PfCK activity (substrate choline); format: biochemical; conditions: for IC50: IC50 PfCK b (compound concentration required to inhibit PfCK enzyme by 50%), substrate choline 4 mM, ATP 2 mM
T1 construct: A truncated form of PfCK (Δ79-440) featuring an N-terminal 6× His-tag; 6xHis (N); host or cells: Escherichia coli BL21 (DE3) Star
T1 sequence (Q8IM71 entry or part of it): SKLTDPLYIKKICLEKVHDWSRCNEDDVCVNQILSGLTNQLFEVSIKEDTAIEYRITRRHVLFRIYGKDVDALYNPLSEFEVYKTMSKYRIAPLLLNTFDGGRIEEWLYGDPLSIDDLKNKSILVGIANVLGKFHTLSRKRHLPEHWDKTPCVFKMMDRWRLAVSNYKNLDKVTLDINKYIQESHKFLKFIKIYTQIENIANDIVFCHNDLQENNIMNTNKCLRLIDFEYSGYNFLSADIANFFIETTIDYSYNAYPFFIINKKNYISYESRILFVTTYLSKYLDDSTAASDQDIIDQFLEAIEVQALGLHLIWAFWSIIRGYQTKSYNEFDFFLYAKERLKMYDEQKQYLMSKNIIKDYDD
Description: A truncated form of PfCK (Δ79-440) featuring an N-terminal 6× His-tag was purchased from Genescript (Piscataway, NJ, USA), cloned into a pET-28a vector and transformed into Escherichia coli BL21 (DE3) Star cells (Invitrogen, Carlsbad, CA, USA). The transformed bacteria were cultured in Luria-Bertani (LB) medium at 37 °C until OD600 = 0.6 and the expression was induced with 1 mM isopropyl β-D-1-thiogalactopyranoside (IPTG). The cell culture was grown overnight at 20 °C and 180 rpm. Cells were pelleted by centrifugation at 10,000 rpm, resuspended in 50 mM Tris/HCl pH 7.5, 500 mM NaCl, 0.2 mM phenylmethylsulphonyl fluoride (PMSF, Sigma Aldrich, St. Luis, MO, USA), DNase (Sigma Aldrich, St. Luis, MO, USA), 0.5 mM β-mercaptoethanol (Sigma Aldrich, St. Luis, MO, USA) and sonicated. Separation of the soluble from the insoluble fraction was obtained by centrifugation at 15,000 rpm and 4 °C. The target enzyme was purified by a two-step purification protocol. In the first step, the cell lysate was incubated for 45 min with Ni-NTA resin (Qiagen, Venlo, The Netherlands) in a gravity column. Then, the column was washed with 40 column volumes (CV) of 50 mM Tris/HCl pH 7.5, 300 mM NaCl, 10 mM imidazole and 1 CV of 50 mM Tris/HCl pH 7.5, 300 mM NaCl, 40 mM imidazole. Finally, the His-tagged enzyme was eluted from the column using a 50 mM Tris/HCl pH 7.5, 300 mM NaCl, 400 mM imidazole buffer. A subsequent size-exclusion chromatography step was implemented to further polish the sample using a HiPrep 26/60 Sephacryl 100 HR column (GE Healthcare, Little Chalfont, Buckinghamshire, UK) previously equilibrated with 20 mM Tris/HCl pH 7.5, 150 mM NaCl buffer. This second purification step afforded a pure protein sample. The protein production yield was estimated to be nearly 2.5 mg of recombinant enzyme per liter of bacterial culture.
A spectrophotometric 96-well plate assay for PfCK activity was established based on an assay previously described. The reaction mix was composed as follows: 100 mM Tris/HCl pH 7.5, 100 mM KCl, 10 mM MgCl2, 0.5 mM phosphoenolpyruvate, 0.25 mM NADH, 4 U of pyruvate kinase, 5 U lactate dehydrogenase, 2 mM ATP, 4 mM choline chloride and different concentrations of the selected compounds. All the necessary compounds for the assay were purchased from Sigma Aldrich (St. Luis, MO, USA) and the final assay volume was 200 μL. The enzymatic reaction was initiated by the addition of the enzyme at less than 10 nM concentration and the reaction rates were measured by monitoring the decrease in the absorbance at 340 nm for 20 min at room temperature using a Spark10M instrument (Tecan). Finally, the IC50 values for each compound were determined by plotting the enzyme fractional activity (f.a.) against the logarithm of compound concentration (log[I]). Curve-fitting was performed with a dose-response curve from Origin (OriginLab Corporation, Northampton, MA, USA), using the following equation: f.a.=1/1+10^logIC50−logI
All data points were collected in triplicate and the final dose-response curves were plotted with MATLAB (R2018a (9.4.0.813654), 2018, MathWorks, Natick, MA, USA). See curves in Figure S1 in Supplementary Materials.

[1] = Plasmodium falciparum, Erythrocyte
[2] = read-out: PfCK Fractional Activity at 25 µM

[Br-].[Br-].c1cc2c(N3CCCCC3)nc[n+](Cc3ccc(CCCCc4ccc(C[n+]5cnc(N6CCCCC6)c6ccsc65)cc4)cc3)c2s1
melting point: 282 to 284 °C

c1cc2c(s1)c(N1CCCCCC1)cc[n+]2Cc1ccc(-c2ccc(C[n+]3ccc(N4CCCCCC4)c4sccc43)cc2)cc1 (as salt: bromide) [Fg-10, 1,1’-([1,1’-biphenyl]-4,4’-diylbis(methylene))bis(7-(azepan-1-yl)thieno[3,2-b]pyridin-4-ium) bromide]
melting point: 220 to 222 °C

[Br-].[Br-].c1cc2c(s1)c(N1CCCC1)nc[n+]2Cc1ccc(-c2ccc(C[n+]3cnc(N4CCCC4)c4sccc43)cc2)cc1 [Fa-21, 1,1’-([1,1’-biphenyl]-4,4’-diylbis(methylene))bis(4-(pyrrolidin-1-yl)thieno[3,2-d]pyrimidin-1-ium) bromide]
melting point: 312 to 315 °C
fold decrease in antimalarial activity with respect to the reference compounds BR-23 / BR-25 (P. falciparum strain 3D7): 10 fold
IC50 (P. falciparum strain 3D7; [1]): 13.7 nM

[Br-].[Br-].c1cc2c(s1)c(N1CCCCCC1)nc[n+]2Cc1ccc(CCc2ccc(C[n+]3cnc(N4CCCCCC4)c4sccc43)cc2)cc1 [Fa-23, 1,1’-((ethane-1,2-diylbis(4,1-phenylene))bis(methylene))bis(4-(azepan-1-yl)thieno[3,2-d]pyrimidin-1-ium) bromide]
melting point: 321 to 323 °C
IC50 (P. falciparum strain 3D7; [1]): 67.8 nM

c1cc2c(s1)c(N1CCCCC1)nc[n+]2Cc1ccc(-c2ccc(C[n+]3cnc(N4CCCCC4)c4sccc43)cc2)cc1 [Fa-24, 1,1’-([1,1’-biphenyl]-4,4’-diylbis(methylene))bis(4-(piperidin-1-yl)thieno[3,2-d]pyrimidin-1-ium) bromide]
remaining activity at 25 µM (PfCK; [2]): 57.1 ± 5.15%
IC50 (P. falciparum strain 3D7; [1]): 57.8 nM

[Br-].[Br-].c1cc2c(s1)c(N1CCCCC1)nc[n+]2Cc1ccc(CCc2ccc(C[n+]3cnc(N4CCCCC4)c4sccc43)cc2)cc1 [Fa-25, 1,1’-((ethane-1,2-diylbis(4,1-phenylene))bis(methylene))bis(4-(piperidin-1-yl)thieno[3,2-d]pyrimidin-1-ium) bromide]
melting point: 314 to 316 °C
IC50 (P. falciparum strain 3D7; [1]): 34.7 nM

[Br-].[Br-].c1cc2c(s1)c(N1CCCC1)cc[n+]2Cc1ccc(CCCCc2ccc(C[n+]3ccc(N4CCCC4)c4sccc43)cc2)cc1 [Ff-1, 4,4’-((butane-1,4-diylbis(4,1-phenylene))bis(methylene))bis(7-(pyrrolidin-1-yl)thieno[3,2-b]pyridin-4-ium) bromide]
IC50 (PfCK): 10900 ± 1330 nM
remaining activity at 25 µM (PfCK; [2]): 47 ± 3.53%
fold decrease in antimalarial activity with respect to the reference compounds BR-23 / BR-25 (P. falciparum strain 3D7): 10 fold
IC50 (P. falciparum strain 3D7; [1]): 90.1 nM

[Br-].[Br-].c1cc2c(N3CCCC3)nc[n+](Cc3ccc(CCCCc4ccc(C[n+]5cnc(N6CCCC6)c6ccsc65)cc4)cc3)c2s1 [Ff-3, 1,1’-((butane-1,4-diylbis(4,1-phenylene))bis(methylene))bis(4-(pyrrolidin-1-yl)thieno[2,3-d]pyrimidin-1-ium) bromide]
melting point: 288 to 290 °C
fold decrease in antimalarial activity with respect to the reference compounds BR-23 / BR-25 (P. falciparum strain 3D7): 10 fold
IC50 (P. falciparum strain 3D7; [1]): 38.8 nM

c1cc2c(s1)c(N1CCCCCC1)nc[n+]2Cc1ccc(OCCOc2ccc(C[n+]3cnc(N4CCCCCC4)c4sccc43)cc2)cc1 [Ff-34, 1,1′-(((ethane-1,2-diylbis(oxy))bis(4,1-phenylene))bis(methylene))bis(4-(azepan-1-yl)thieno[3,2-d]pyrimidin-1-ium) bromide]
remaining activity at 25 µM (PfCK; [2]): 52.2 ± 12.4%
remaining activity at 25 µM (PfCK; read-out: residual enzyme activity): 52.2%
IC50 (P. falciparum strain 3D7; [1]): 87.9 nM

c1cc2c(s1)c(N1CCCCCC1)cc[n+]2Cc1ccc(-c2ccc(C[n+]3ccc(N4CCCCCC4)c4sccc43)cc2)cc1 [Fg-10, 1,1’-([1,1’-biphenyl]-4,4’-diylbis(methylene))bis(7-(azepan-1-yl)thieno[3,2-b]pyridin-4-ium) bromide]
remaining activity at 25 µM (PfCK; [2]): 44.7 ± 8.55%
IC50 (P. falciparum strain 3D7; [1]): 53 nM

c1cc2c(s1)c(N1CCCC1)cc[n+]2Cc1ccc(-c2ccc(C[n+]3ccc(N4CCCC4)c4sccc43)cn2)nc1 [Fg-12, 4,4’-([2,2’-bipypidine]-5,5’-diylbis(methylene))bis(7-(pyrrolidin-1-yl)thieno[3,2-b]pyridin-4-ium bromide)]
IC50 (P. falciparum strain 3D7): 305 nM

[Br-].[Br-].c1cc2c(N3CCCC3)nc[n+](Cc3ccc(-c4ccc(C[n+]5cnc(N6CCCC6)c6ccsc65)cc4)cc3)c2s1 [Fg-14, 1,1’-([1,1’-biphenyl]-4,4’-diylbis(methylene))bis(4-(pyrrolidin-1-yl)thieno[2,3-d]pyrimidin-1-ium) bromide]
melting point: 300 to 302 °C
fold decrease in antimalarial activity with respect to the reference compounds BR-23 / BR-25 (P. falciparum strain 3D7): 10 fold
IC50 (P. falciparum strain 3D7; [1]): 20.6 nM

c1cc2c(N3CCCCC3)nc[n+](Cc3ccc(-c4ccc(C[n+]5cnc(N6CCCCC6)c6ccsc65)cc4)cc3)c2s1 [Fg-30, 1,1’-([1,1’-biphenyl]-4,4’-diylbis(methylene))bis(4-(piperidin-1-yl)thieno[2,3-d]pyrimidin-1-ium) bromide]
remaining activity at 25 µM (PfCK; [2]): 54.8 ± 7.2%
IC50 (P. falciparum strain 3D7; [1]): 27.9 nM

CN(c1ccccc1)c1nc[n+](Cc2ccc(-c3ccc(C[n+]4cnc(N(C)c5ccccc5)c5sccc54)cc3)cc2)c2ccsc12.[Br-].[Br-] [Fp-1, 1,1’-([1,1’-biphenyl]-4,4’-diylbis(methylene))bis(4-(methyl(phenyl)amino)thieno[3,2-d]pyrimidin-1-ium)bromide]
IC50 (PfCK): 7270 ± 230 nM
remaining activity at 25 µM (PfCK; [2]): 12.9 ± 3.32%
IC50 (P. falciparum strain 3D7; [1]): 142 nM
fold decrease of antimalarial activity with respect to RSM932A (P. falciparum strain 3D7): up to 10 fold
fold decrease in parasite lethality with respect to BR-31 (P. falciparum strain 3D7): 10 fold

CN(c1ccc(Cl)cc1)c1nc[n+](Cc2ccc(-c3ccc(C[n+]4cnc(N(C)c5ccc(Cl)cc5)c5ccsc54)cc3)cc2)c2sccc12.[Br-].[Br-] [Fp-8, 1,1’-([1,1’-biphenyl]-4,4’-diylbis(methylene))bis(4-((4-chlorophenyl)(methyl)amino)thieno[2,3-d]pyrimidin-1-ium) bromide]
IC50 (PfCK): 4170 ± 480 nM
remaining activity at 25 µM (PfCK; [2]): 8.1 ± 5.8%
IC50 (P. falciparum strain 3D7; [1]): 282 nM
fold decrease of antimalarial activity with respect to RSM932A (P. falciparum strain 3D7): up to 10 fold
fold decrease in parasite lethality with respect to BR-31 (P. falciparum strain 3D7): 10 fold
